Results as given in US7618774B2, “Materials and methods for identifying genes and/or agents that alter replicative lifespan” (University of Rochester, priority 2003, dated 2009).
Entries after “also recorded” stand apart in the source; their conditions may differ.

Assays:
[1] = tested on: K6001 cells; assay: DEAD assay for replicative lifespan; format: cell-based, S. cerevisiae
Description: One yeast strain that can be used in the assays of the present invention is S. cerevisiae strain K6001, which carries two distinct non-native genes (i.e., not contained within a single cassette). This strain was originally developed for the study of mating-type switching (Bobola et al. “Asymmetric Accumulation of Ash1p in Postanaphase Nuclei Depends on a Myosin and Restricts Yeast Mating-Type Switching to Mother Cells,” Cell 84:699-709 (1996), which is hereby incorporated by reference in its entirety). K6001 cells contain two independent copies of CDC6 expressed from either the repressible GAL1or mother-cell specific HO promoters. Cdc6p is an essential protein required for DNA replication. Transcription from the HO promoter in daughter cells is prevented by Ash1p, which is expressed exclusively in daughter cells (Sil, et al., “Identification of Asymmetrically Localized Determinant, Ash1p, Required for Lineage-Specific Transcription of the Yeast HO Gene,” Cell 84:711-22 (1996), which is hereby incorporated by reference in its entirety). When K6001 cells are cultured on galactose, GAL1::CDC6 is expressed in both mother and daughter cells, sustaining the replication of both. However, when the GAL1::CDC6 gene is repressed by glucose, only the mother-specific expression of HO::CDC6 remains to support growth. Given the tight regulation of the GAL1promoter, DNA replication fails and daughter cells arrest after one, or at most a few ectopic cytokineses. As a result, K6001 cultures grow approximately linearly in glucose (daughter cells accumulate and contribute to the optical density of the culture) until the mother cells reach their replicative capacity and cease producing daughter cells. Since Cdc6 is naturally unstable, and the GAL1 promoter is efficiently shut off in glucose, the transition from log growth to linear growth is relatively tight and rapid. […]
The DEAD assay was used to assess the effect of deleting SGS1 on replicative lifespan. […] After 48 hrs at 30° C. the number of daughter cells in each microcolony was counted by microdissection and plotted as a survival curve. […]

[2] = tested on: yeast; details: literature reports; cited from earlier work
[3] = tested on: mammalian cells; details: literature reports; cited from earlier work
[4] = target: Sir2 (Saccharomyces cerevisiae, UniProt P06700); details: in vitro; cited from earlier work
Sequence of Sir2 (P06700 whole entry): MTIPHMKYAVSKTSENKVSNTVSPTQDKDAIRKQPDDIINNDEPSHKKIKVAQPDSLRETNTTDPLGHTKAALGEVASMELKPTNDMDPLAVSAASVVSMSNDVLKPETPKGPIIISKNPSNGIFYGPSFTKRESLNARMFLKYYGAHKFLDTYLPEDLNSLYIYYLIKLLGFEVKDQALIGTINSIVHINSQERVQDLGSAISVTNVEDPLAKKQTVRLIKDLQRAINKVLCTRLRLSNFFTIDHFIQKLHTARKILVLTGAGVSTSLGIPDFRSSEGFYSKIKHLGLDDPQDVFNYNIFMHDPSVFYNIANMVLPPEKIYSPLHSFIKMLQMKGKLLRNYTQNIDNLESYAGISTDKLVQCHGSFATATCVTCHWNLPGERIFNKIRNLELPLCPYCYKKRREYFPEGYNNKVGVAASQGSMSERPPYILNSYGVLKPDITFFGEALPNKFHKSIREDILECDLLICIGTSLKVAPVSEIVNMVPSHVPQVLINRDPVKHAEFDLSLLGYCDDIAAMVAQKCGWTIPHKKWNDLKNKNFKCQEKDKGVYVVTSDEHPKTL

| Compound | lifespan (replicative) ([1]; K6001 cells cultured in 5 μM paraquat versus lower concentration, FIG. 4) | mean lifespan (replicative) ([1]; K6001 cells, paraquat between 0.1 μM to 5.0 μM, FIG. 4) | replicative lifespan of yeast [2] | apoptosis [3] | mean lifespan (replicative) ([1]; K6001 cells cultured in presence or absence of 10 μM resveratrol, FIG. 3) | Sir2 activation [4] |
| --- | --- | --- | --- | --- | --- | --- |
| C[n+]1ccc(-c2cc[n+](C)cc2)cc1 [paraquat] | apparently shorter | decreased in a dose-dependent fashion | reduce replicative lifespan in yeast | induce apoptosis in mammalian cells |  |  |
| Oc1ccc(C=Cc2cc(O)cc(O)c2)cc1 [resveratrol] |  |  | extends the replicative lifespan of yeast |  | significantly extended the mean lifespan; also recorded: longer mean lifespan | actives Sir2 in vitro |
